From patent US20150087627A1, “COMBINATION OF KINASE INHIBITORS AND USES THEREOF” (Intellikine LLC, priority 2011, published 2015)

Key:
Format in all cases: biochemical
PI3K α (p110α/p85α) = biological target: T1, PI3K α (p110α/p85α) (Homo sapiens, UniProt P42336); assay: PI 3-Kinase (human) HTRF assay, PI3K α; details: read-out: PI3K α IC50
T1 construct: purchased Upstate / Millipore Corporation
Procedure: Briefly, the assay is a time resolved FRET assay that indirectly measures PIP3 product formed by the activity of a PI3-K. The kinase reaction is performed in a microtiter plate (e.g., a 384 well microtiter plate). The total reaction volume is approximately 20 ul per well. In the first step, each well receives 2 ul of test compound in 20% dimethylsulphoxide resulting in a 2% DMSO final concentration. […] The plate is sealed and incubated for 15 minutes at room temperature. […] The plate is sealed and incubated for 1 hour at room temperature. The reaction is stopped by adding 5 ul of Stop Solution per well and then 5 ul of Detection Mix is added per well. The plate is sealed, incubated for 1 hour at room temperature, and then read on an appropriate plate reader. Data is analyzed and IC50s are generated using GraphPad Prism 5.

PI3K δ = biological target: T2, PI3K δ (Homo sapiens, UniProt O00329); assay: PI 3-Kinase (human) HTRF assay, PI3K δ; details: read-out: PI3K δ IC50
T2 construct: purchased Upstate / Millipore Corporation
T2 sequence (O00329 whole entry): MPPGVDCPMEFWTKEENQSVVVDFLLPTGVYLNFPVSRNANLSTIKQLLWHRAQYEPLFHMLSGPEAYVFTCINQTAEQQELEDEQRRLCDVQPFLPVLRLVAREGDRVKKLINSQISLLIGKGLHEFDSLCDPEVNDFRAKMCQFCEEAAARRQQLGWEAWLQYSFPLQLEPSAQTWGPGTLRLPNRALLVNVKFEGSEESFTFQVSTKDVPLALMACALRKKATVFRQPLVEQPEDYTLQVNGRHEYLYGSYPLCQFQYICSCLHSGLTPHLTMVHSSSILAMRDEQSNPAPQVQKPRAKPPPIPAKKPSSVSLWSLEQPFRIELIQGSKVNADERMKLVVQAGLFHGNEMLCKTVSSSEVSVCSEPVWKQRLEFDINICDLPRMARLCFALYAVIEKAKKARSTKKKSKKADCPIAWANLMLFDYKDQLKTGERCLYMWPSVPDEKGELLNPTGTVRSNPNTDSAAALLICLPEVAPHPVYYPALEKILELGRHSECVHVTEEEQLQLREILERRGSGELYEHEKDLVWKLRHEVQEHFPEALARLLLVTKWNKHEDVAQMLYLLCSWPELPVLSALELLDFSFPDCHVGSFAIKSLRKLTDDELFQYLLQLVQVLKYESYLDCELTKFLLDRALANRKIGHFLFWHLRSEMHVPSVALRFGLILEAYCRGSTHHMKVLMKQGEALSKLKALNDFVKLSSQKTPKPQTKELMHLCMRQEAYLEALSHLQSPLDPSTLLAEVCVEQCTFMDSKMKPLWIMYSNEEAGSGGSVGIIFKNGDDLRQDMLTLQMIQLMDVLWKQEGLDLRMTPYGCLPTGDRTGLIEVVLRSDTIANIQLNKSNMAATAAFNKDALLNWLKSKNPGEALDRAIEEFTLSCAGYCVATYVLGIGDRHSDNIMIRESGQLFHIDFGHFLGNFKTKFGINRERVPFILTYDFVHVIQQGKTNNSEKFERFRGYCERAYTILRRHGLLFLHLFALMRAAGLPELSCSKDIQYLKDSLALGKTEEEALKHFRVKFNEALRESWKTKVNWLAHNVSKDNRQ
T2 sequence (P27986 whole entry partner): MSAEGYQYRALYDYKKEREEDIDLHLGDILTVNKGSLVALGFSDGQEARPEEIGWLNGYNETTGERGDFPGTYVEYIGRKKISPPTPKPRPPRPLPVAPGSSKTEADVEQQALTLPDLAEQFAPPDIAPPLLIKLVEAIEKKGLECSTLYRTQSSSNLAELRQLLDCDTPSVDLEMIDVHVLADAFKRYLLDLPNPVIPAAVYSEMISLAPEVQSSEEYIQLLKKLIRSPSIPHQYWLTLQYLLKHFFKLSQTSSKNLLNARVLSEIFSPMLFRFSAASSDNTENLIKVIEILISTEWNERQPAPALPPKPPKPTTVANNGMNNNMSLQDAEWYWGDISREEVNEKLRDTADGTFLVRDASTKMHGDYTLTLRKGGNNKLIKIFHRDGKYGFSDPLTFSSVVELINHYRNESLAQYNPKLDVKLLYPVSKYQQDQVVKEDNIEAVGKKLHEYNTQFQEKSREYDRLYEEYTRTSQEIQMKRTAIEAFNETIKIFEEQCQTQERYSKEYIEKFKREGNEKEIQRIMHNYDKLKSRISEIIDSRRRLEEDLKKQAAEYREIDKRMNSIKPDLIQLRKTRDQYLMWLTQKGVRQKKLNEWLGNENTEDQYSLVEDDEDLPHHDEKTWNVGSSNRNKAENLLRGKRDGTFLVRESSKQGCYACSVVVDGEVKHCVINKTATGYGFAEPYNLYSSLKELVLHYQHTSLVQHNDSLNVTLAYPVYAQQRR

PI3K β (p110β/p85α) = biological target: T3, PI3K β (p110β/p85α) (Homo sapiens, UniProt P42338); assay: PI 3-Kinase (human) HTRF assay, PI3K β; details: read-out: PI3K β IC50
T3 construct: purchased Upstate / Millipore Corporation
T3 sequence (P42338 whole entry): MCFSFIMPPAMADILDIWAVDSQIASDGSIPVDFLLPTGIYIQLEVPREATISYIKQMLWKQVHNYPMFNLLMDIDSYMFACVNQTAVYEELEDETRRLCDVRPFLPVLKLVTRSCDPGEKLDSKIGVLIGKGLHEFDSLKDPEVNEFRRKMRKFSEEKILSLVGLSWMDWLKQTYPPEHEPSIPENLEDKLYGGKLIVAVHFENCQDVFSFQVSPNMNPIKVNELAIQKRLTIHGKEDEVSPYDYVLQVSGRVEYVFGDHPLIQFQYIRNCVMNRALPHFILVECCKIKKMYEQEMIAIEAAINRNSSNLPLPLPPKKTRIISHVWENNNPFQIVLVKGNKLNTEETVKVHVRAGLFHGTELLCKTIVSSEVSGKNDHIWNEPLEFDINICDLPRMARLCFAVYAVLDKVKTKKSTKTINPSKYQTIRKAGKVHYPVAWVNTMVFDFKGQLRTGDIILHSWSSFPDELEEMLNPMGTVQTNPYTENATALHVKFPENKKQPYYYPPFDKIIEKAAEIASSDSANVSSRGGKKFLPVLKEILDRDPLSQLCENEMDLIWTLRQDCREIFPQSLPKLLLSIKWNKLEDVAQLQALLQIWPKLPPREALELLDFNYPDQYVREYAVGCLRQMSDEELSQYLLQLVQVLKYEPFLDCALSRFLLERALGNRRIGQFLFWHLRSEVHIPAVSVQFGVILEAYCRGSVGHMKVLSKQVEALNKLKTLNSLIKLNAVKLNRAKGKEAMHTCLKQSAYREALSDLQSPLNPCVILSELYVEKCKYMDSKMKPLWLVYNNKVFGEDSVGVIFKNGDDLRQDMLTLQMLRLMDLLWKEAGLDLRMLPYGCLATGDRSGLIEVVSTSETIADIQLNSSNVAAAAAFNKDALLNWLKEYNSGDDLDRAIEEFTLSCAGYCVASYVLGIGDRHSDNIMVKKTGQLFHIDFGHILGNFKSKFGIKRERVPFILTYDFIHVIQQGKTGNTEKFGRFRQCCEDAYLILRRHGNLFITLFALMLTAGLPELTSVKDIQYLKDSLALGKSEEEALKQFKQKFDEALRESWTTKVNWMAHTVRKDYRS
T3 sequence (P27986 whole entry partner): as the sequence (P27986 whole entry partner) above

PI3K γ (p110γ) = biological target: T4, PI3K γ (p110γ) (Homo sapiens, UniProt P48736); assay: PI 3-Kinase (human) HTRF assay, PI3K γ; details: read-out: PI3K γ IC50
T4 construct: purchased Upstate / Millipore Corporation
T4 sequence (P48736 whole entry): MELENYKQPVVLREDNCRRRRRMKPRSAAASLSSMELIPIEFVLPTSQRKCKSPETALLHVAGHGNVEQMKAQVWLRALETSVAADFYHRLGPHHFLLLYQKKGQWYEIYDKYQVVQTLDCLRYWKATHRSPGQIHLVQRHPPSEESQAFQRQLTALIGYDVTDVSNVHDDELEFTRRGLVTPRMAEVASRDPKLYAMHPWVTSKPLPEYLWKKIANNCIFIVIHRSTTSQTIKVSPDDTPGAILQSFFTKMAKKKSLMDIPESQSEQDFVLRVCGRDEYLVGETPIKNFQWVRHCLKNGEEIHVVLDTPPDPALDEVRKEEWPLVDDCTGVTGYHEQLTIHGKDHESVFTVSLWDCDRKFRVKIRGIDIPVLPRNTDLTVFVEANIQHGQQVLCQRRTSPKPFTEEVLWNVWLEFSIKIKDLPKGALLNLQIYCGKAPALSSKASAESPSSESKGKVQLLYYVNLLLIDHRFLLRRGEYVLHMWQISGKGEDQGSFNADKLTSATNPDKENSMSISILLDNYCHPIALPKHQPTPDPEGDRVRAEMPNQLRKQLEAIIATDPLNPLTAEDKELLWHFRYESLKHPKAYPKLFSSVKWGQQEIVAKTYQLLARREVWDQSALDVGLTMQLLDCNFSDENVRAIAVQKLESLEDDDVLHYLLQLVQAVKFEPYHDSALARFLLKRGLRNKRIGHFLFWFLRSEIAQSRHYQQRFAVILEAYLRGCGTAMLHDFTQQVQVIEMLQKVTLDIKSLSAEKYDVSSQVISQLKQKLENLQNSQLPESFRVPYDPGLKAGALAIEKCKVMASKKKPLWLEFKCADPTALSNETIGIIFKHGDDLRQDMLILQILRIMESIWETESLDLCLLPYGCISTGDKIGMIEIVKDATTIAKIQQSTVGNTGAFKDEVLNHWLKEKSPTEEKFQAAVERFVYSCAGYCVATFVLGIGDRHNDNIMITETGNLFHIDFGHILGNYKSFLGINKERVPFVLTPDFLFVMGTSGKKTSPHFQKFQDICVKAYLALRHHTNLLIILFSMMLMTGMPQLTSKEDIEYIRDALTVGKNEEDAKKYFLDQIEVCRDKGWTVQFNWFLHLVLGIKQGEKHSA

T1 sequence (P42336 whole entry): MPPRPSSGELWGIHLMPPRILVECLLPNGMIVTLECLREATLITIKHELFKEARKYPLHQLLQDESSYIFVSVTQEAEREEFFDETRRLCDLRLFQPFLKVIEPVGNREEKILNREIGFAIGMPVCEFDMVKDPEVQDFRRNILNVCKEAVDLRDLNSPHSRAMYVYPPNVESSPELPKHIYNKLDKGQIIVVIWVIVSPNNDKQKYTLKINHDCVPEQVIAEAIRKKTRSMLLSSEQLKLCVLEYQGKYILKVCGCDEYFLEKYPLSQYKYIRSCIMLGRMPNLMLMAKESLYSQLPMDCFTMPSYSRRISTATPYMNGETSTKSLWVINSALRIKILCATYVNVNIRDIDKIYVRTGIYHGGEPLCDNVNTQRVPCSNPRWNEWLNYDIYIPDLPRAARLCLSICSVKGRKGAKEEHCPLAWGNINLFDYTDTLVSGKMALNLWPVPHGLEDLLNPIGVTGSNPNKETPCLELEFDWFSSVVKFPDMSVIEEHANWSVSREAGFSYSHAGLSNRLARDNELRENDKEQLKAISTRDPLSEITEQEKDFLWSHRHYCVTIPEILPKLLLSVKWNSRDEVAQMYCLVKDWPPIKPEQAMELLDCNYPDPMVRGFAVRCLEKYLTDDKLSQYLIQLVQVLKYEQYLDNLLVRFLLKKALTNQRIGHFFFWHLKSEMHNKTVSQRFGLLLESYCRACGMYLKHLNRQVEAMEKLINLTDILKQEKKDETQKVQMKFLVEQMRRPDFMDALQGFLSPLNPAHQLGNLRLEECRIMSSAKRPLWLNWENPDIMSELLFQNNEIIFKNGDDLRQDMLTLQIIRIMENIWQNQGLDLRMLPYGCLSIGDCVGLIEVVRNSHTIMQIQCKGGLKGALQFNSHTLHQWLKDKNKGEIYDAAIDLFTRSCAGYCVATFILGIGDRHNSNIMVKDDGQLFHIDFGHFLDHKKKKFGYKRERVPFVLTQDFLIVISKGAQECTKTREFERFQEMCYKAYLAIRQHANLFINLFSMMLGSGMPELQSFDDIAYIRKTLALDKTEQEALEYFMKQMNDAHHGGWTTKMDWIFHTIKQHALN
T1 sequence (P27986 whole entry partner): as the sequence (P27986 whole entry partner) above

SMILES	IC50 (PI3K α (p110α/p85α)) [µM]	IC50 (PI3K δ) [µM]	IC50 (PI3K β (p110β/p85α)) [µM]	IC50 (PI3K γ (p110γ)) [µM]
CC1(C)CN(C(=O)c2cnc3ccc(-c4ccc5oc(N)nc5c4)cn23)CCO1 [Compound 513]	< 1	> 10	> 10	< 10
Nc1nc2ccc(-c3ccc4nnc(-c5cccnc5)n4c3)cc2o1 [Compound 301]	< 10	> 10	< 10	> 10
Nc1nc2cc(-c3ccc4ncc(N5CCC(n6cccn6)CC5)nc4c3)ccc2o1 [Compound 337]	< 0.1	> 10	> 10	< 1
Nc1nc2cc(-c3ccn4ncc(-c5ccncc5)c4c3)ccc2o1 [Compound 356]	< 0.1	< 0.1	< 0.1	< 0.1
Cc1c(-c2ccc3ncc(C(=O)N4CCOCC4)n3c2)ccc2oc(N)nc12 [Compound 369]	> 10	> 10	> 10	> 10
Nc1nc2cc(-c3ccc4ncc(N5CCC(O)C5)nc4c3)ccc2o1 (stereo not drawn) [Compound 209]	< 0.1	< 10	< 1	< 0.1
Nc1nsc2c(-c3ccc4ncc(C(=O)N5CCOCC5)n4c3)cccc12 [Compound 474]	< 10	> 10	> 10	> 10
O=C(c1cnc2ccc(-c3ccc4oc(NC5CC5)nc4c3)cn12)N1CCOCC1 [Compound 409]	< 10	> 10	> 10	> 10
CNC(=O)N1CCN(c2cnc3ccc(-c4ccc5oc(N)nc5c4)cc3n2)CC1 [Compound 154]	< 0.1	< 10	< 1	< 0.1
Nc1nc2cc(-c3ccc4ncnc(NC5CCN(C(=O)C6CC6)CC5)c4c3)ccc2o1 [Compound 89]	< 0.1	< 0.1	< 10	< 0.1
Nc1nc2cc(-c3ccc4ncc(C(=O)NC5CCOCC5)n4c3)ccc2o1 [Compound 83]	< 0.1	< 0.1	< 10	< 0.1
Nc1nc2cc(-c3ccc4ncc(C(=O)N5CC(N6CC[C@H](O)C6)C5)n4c3)ccc2o1 [Compound 469]	< 0.1	< 10	< 10	< 1
CC1(C)CN(C2CN(C(=O)c3cnc4ccc(-c5ccc6oc(N)nc6c5)cn34)C2)CCN1 [Compound 515]	< 0.1	< 0.1	< 10	< 1
Nc1nc2cc(-c3ccc4ncc(-c5ccncc5)nc4c3)ccc2o1 [Compound 71]	< 0.1	< 1	< 10	< 0.1
COc1ncc(-c2ccc3ncc(C(=O)N4CCOCC4)n3c2)cc1NS(=O)(=O)c1ccccc1 [Compound 420]	< 0.1	< 1	> 10	< 1
C[C@H]1CN(C(=O)C2CN(c3cnc4ccc(-c5ccc6oc(N)nc6c5)cc4n3)C2)CCN1 [Compound 268]	< 0.1	< 10	< 10	< 1
CN1CCN(c2ccnc3ccc(-c4ccc5oc(N)nc5c4)cc23)CC1 [Compound 21]	< 1	< 10	< 10	< 10
Cc1cc2ncc(C(=O)N3CCOCC3)n2cc1-c1ccc2oc(N)nc2c1 [Compound 507]	> 10	> 10	> 10	> 10
C[C@H]1CN(c2cnc3ccc(-c4cccc5c(N)noc45)cc3n2)CCN1 [Compound 363]	> 10	> 10	> 10	> 10
Nc1nc2cc(-c3ccc4ncc(-c5ccccn5)nc4c3)ccc2o1 [Compound 195]	< 1	> 10	< 10	< 0.1

SMILES	IC50 (PI3K α (p110α/p85α)) [µM]	IC50 (PI3K δ) [µM]	IC50 (PI3K β (p110β/p85α)) [µM]	IC50 (PI3K γ (p110γ)) [µM]
Nc1nc2cc(-c3ccc4ncc(N5CCOCC5)n4c3)ccc2o1 [Compound 53]	< 10	> 10	> 10	> 10
Nc1nc2ccc(-c3ccc4nnc(-c5ccncc5)n4c3)cc2o1 [Compound 230]	< 10	< 10	< 1	< 1
Nc1nc2cc(-c3ccc4ncn(CCN5CCOCC5)c(=O)c4c3)ccc2o1 [Compound 289]	< 1	> 10	< 10	< 1
CCN(CC)CCNc1cnc2ccc(-c3ccc4oc(N)nc4c3)cc2n1 [Compound 218]	< 1	< 1	< 1	< 10
COc1ncc(-c2ccc3ncc(C(=O)N4CCOCC4)n3c2)cc1NS(=O)(=O)c1ccccc1F [Compound 422]	< 0.1	< 1	< 10	< 0.1
CN(C)C1CCN(c2cnc3ccc(-c4ccc5oc(N)nc5c4)cc3n2)CC1 [Compound 172]	< 0.1	< 0.1	< 0.1	< 1
Nc1nc2cc(-c3ccc4ncc(N5CCN(C(=O)[C@H]6CCCN6)CC5)nc4c3)ccc2o1 [Compound 225]	< 0.1	< 0.1	< 0.1	< 0.1
CN1CCN(n2cnc3ccc(-c4ccc5oc(N)nc5c4)cc3c2=O)CC1 [Compound 518]	< 1	> 10	> 10	> 10
CN1CCC(n2cnc3ccc(-c4cnc(Cl)c(NS(=O)(=O)c5ccccc5)c4)cc3c2=O)CC1 [Compound 527]	< 0.1	< 0.1	< 0.1	< 1
Cc1c(-c2ccc3ncc(N4CC(N5CCOCC5)C4)nc3c2)ccc2oc(N)nc12 [Compound 362]	> 10	> 10	> 10	> 10
Cc1cn(C2CN(c3cnc4ccc(-c5ccc6oc(N)nc6c5)cc4n3)C2)cn1 [Compound 339]	< 0.1	< 1	< 1	< 1
Nc1ncc(-c2cnc3ccc(-c4ccc5oc(N)nc5c4)cc3n2)cn1 [Compound 210]	< 1	> 10	> 10	> 10
Cc1c(-c2ccc3oc(N)nc3c2)ccc2ncc(N3CC(N4CCOCC4)C3)nc12 [Compound 383]	< 1	> 10	> 10	> 10
Nc1nc2cc(-c3ccc4ncc(C(=O)N5CCOCC5)n4n3)ccc2o1 [Compound 105]	< 1	> 10	< 10	< 1
CN1CCN(CCNc2cnc3ccc(-c4ccc5oc(N)nc5c4)cc3n2)CC1 [Compound 275]	< 0.1	< 1	< 1	< 1
CN1CCN(C(=O)c2cnn3ccc(-c4ccc5oc(N)nc5c4)cc23)CC1 [Compound 380]	< 1	> 10	< 10	< 10
CCN(CC)CCNC(=O)c1cnc2ccc(-c3ccc4oc(N)nc4c3)cn12 [Compound 295]	< 1	< 1	< 1	< 1
CN1CCCN(C(=O)c2cnc3ccc(-c4ccc5oc(N)nc5c4)cn23)CC1 [Compound 140]	< 1	> 10	< 10	> 10
O=C(c1cnc2ccc(-c3cncc4[nH]ncc34)cn12)N1CCOCC1 [Compound 506]	< 0.1	> 10	> 10	> 10
